Molecules are shown by their SMILES. Where two headings read alike, the source gives them in different places. Where only a bound is given, the exact number is not on record here.

In assay [1] the target is T1, human CB2 receptors (Homo sapiens, UniProt P34972).
T1 construct: expressed in transfected cells; host or cells: CHO cells
Nature of the assay: cAMP assay, human CB2. In kind it is cell-based. The gist of the method:
(§1)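 CHO cells expressing human CB1 or CB2, preincubated in Krebs Ringer bicarbonate with 1 mM IBMX, then compound for 30 min at 30° C. cAMP quantified by time-resolved FRET (cAMP-Nano-TRF) against a cAMP standard curve; EC50 values derived.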

Assay [2] has as its target T2, human CB1 receptors (Homo sapiens, UniProt P21554).
T2 construct: expressed in transfected cells; host or cells: CHO cells
Nature of the assay: cAMP assay, human CB1. In kind it is cell-based. The method in brief:
as §1

The mark [3] stands for this setting: functional cAMP assay, CHO cells expressing human CB2, read-out: Ec50: CB2 - hu cAMP.
The mark [4] stands for this setting: functional cAMP assay, CHO cells expressing human CB1, read-out: Ec50: CB1 - hu cAMP.

T1 sequence (P34972 whole entry): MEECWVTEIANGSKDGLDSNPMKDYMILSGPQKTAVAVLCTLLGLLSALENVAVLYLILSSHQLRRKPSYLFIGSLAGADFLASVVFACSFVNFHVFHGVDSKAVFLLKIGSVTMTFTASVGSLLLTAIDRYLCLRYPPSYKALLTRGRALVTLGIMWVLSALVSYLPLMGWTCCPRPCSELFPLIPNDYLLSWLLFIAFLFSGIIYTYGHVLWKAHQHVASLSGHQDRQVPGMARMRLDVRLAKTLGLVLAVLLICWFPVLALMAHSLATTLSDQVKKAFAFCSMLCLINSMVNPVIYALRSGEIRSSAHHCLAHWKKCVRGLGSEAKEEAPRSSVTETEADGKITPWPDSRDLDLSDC
T2 sequence (P21554 whole entry): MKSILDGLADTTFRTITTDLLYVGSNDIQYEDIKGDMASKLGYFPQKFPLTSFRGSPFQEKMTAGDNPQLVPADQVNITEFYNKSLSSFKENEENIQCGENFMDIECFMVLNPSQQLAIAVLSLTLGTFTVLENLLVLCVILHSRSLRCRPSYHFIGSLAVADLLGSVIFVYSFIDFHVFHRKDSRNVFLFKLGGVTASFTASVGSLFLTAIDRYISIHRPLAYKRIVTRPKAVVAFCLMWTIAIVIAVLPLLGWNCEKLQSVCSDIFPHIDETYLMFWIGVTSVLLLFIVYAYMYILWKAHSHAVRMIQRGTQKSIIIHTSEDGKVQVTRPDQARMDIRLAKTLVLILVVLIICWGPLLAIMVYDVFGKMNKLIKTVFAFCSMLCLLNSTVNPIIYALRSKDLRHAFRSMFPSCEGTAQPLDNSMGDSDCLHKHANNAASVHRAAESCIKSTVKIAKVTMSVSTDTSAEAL

For `COCCN(C(=O)n1nnn(-c2cccc(OC(F)(F)F)c2)c1=O)C(C)C` [Example 84, 5-Oxo-4-(3-trifluoromethoxy-phenyl)-4,5-dihydro-tetrazole-1-carboxylic acid isopropyl-(2-methoxy-ethyl)-amide], the concentration giving a half-maximal response (EC50) (as a rule, the concentration that produces a half-maximal response) in assay [1] (setting [3]) is 9.5 nM; in assay [2] (setting [4]), over 10000 nM.
On the same counts, the results for `CN(C(=O)n1nnn(-c2cccc(F)c2)c1=O)c1ccccn1` [Example 32, 4-(3-Fluoro-phenyl)-5-oxo-4,5-dihydro-tetrazole-1-carboxylic acid methyl-pyridin-2-yl-amide] are 152 nM and over 10000 nM.
The corresponding values for `O=C(CN1CCN(C(=O)n2nnn(-c3cccc(OC(F)(F)F)c3)c2=O)CC1)N1CCCC1` [Example 96, 1-[4-(2-Oxo-2-pyrrolidin-1-yl-ethyl)-piperazine-1-carbonyl]-4-(3-trifluoromethoxy-phenyl)-1,4-dihydro-tetrazol-5-one] are 18.2 nM and over 10000 nM.
The corresponding values for `CC(=O)N[C@H]1CCN(C(=O)n2nnn(-c3cccc(Cl)c3)c2=O)C1` [Example 68, N—{(S)-1-[4-(3-Chloro-phenyl)-5-oxo-4,5-dihydro-tetrazole-1-carbonyl]-pyrrolidin-3-yl}-acetamide] are 39.5 nM and over 10000 nM.
As to `CC(=O)N[C@@H]1CCN(C(=O)n2nnn(-c3cccc(OC(F)(F)F)c3)c2=O)C1` [Example 66, N—{(R)-1-[5-Oxo-4-(3-trifluoromethoxy-phenyl)-4,5-dihydro-tetrazole-1-carbonyl]-pyrrolidin-3-yl}-acetamide], the concentration for a half-maximal effect (EC50) in assay [1] (setting [3]) was 20.4 nM; in assay [2] (setting [4]) it was over 10000 nM.
With `Cc1cc(C2CCCN2C(=O)n2nnn(-c3cccc(F)c3)c2=O)on1` (stereo not shown) [Example 20, 1-(3-Fluoro-phenyl)-4-[2-(3-methyl-isoxazol-5-yl)-pyrrolidine-1-carbonyl]-1,4-dihydro-tetrazol-5-one], the EC50 is 6.9 nM in assay [1] (setting [3]) and over 10000 nM in assay [2] (setting [4]).
`COCCNC(=O)n1nnn(-c2cccc(F)c2)c1=O` [Example 110, 4-(3-Fluoro-phenyl)-5-oxo-4,5-dihydro-tetrazole-1-carboxylic acid (2-methoxy-ethyl)-amide]: the values for the EC50 in assay [1] (setting [3]) and in assay [2] (setting [4]) were 968 nM and over 10000 nM, respectively.
The corresponding values for `C[C@@H]1CN(C(=O)n2nnn(-c3cccc(Cl)c3)c2=O)C[C@H](C)O1` [Example 136, 1-(3-chlorophenyl)-4-[(2R,6S)-2,6-dimethylmorpholine-4-carbonyl]tetrazol-5-one] are 507 nM and over 10000 nM.
On the same counts, the results for `CC(=O)N[C@H]1CCN(C(=O)n2nnn(-c3cccc(F)c3)c2=O)C1` [Example 42, N—{(S)-1-[4-(3-Fluoro-phenyl)-5-oxo-4,5-dihydro-tetrazole-1-carbonyl]-pyrrolidin-3-yl}-acetamide] are 91.1 nM and over 10000 nM.
Consider `O=C(N1CCOCC1)n1nnn(-c2cc(F)ccc2F)c1=O` [Example 124, 1-(2,5-difluorophenyl)-4-(morpholine-4-carbonyl)tetrazol-5-one], for which the concentration for a half-maximal effect (EC50) was 19 nM in assay [1] (setting [3]) and over 10000 nM in assay [2] (setting [4]).
The corresponding values for `CCOCCN(C)C(=O)n1nnn(-c2cccc(Cl)c2)c1=O` [Example 111, 4-(3-Chloro-phenyl)-5-oxo-4,5-dihydro-tetrazole-1-carboxylic acid (2-ethoxy-ethyl)-methyl-amide] are 1.5 nM and over 10000 nM.
On the same counts, the results for `CC(C(=O)N1CCCC1)N1CCN(C(=O)n2nnn(-c3cccc(OC(F)(F)F)c3)c2=O)CC1` (stereo not shown) [Example 117, 1-[4-(1-Methyl-2-oxo-2-pyrrolidin-1-yl-ethyl)-piperazine-1-carbonyl]-4-(3-trifluoromethoxy-phenyl)-1,4-dihydro-tetrazol-5-one] are 106 nM and over 10000 nM.
The corresponding values for `CN(C)C(=O)CN1CCN(C(=O)n2nnn(-c3cccc(OC(F)(F)F)c3)c2=O)CC1` [Example 93, N,N-Dimethyl-2-{4-[5-oxo-4-(3-trifluoromethoxy-phenyl)-4,5-dihydro-tetrazole-1-carbonyl]-piperazin-1-yl}-acetamide] are 24.2 nM and over 10000 nM.
Take `CC1CCCN1C(=O)n1nnn(-c2cccc(F)c2)c1=O` (stereo not shown) [Example 48, 1-(3-Fluoro-phenyl)-4-(2-methyl-pyrrolidine-1-carbonyl)-1,4-dihydro-tetrazol-5-one]: the EC50 is 6.7 nM in assay [1] (setting [3]) and over 10000 nM in assay [2] (setting [4]).
The corresponding values for `COCCN(C(=O)n1nnn(-c2cccc(F)c2)c1=O)C(C)C` [Example 55, 4-(3-Fluoro-phenyl)-5-oxo-4,5-dihydro-tetrazole-1-carboxylic acid isopropyl-(2-methoxy-ethyl)-amide] are 4.1 nM and over 10000 nM.
On the same counts, the results for `CN(C)C(=O)CN1CCN(C(=O)n2nnn(-c3cccc(Cl)c3)c2=O)CC1` [Example 92, 2-{4-[4-(3-Chloro-phenyl)-5-oxo-4,5-dihydro-tetrazole-1-carbonyl]-piperazin-1-yl}-N,N-dimethyl-acetamide] are 16.4 nM and over 10000 nM.
On the same counts, the results for `CC1(C)CCN(C(=O)n2nnn(-c3ccc(Cl)cc3)c2=O)CC1` [Example 79, 1-(4-Chloro-phenyl)-4-(4,4-dimethyl-piperidine-1-carbonyl)-1,4-dihydro-tetrazol-5-one] are 0.9 nM and over 10000 nM.
In the case of `CCOC(=O)C(C)(C)n1nnn(-c2cccc(F)c2)c1=O` [Example 16, 2-[4-(3-Fluoro-phenyl)-5-oxo-4,5-dihydro-tetrazol-1-yl]-2-methyl-propionic acid ethyl ester], the EC50 is 327 nM in assay [1] (setting [3]) and over 10000 nM in assay [2] (setting [4]).
Regarding `N#CC1CCN(C(=O)n2nnn(-c3cccc(F)c3)c2=O)CC1` [Example 61, 1-[4-(3-Fluoro-phenyl)-5-oxo-4,5-dihydro-tetrazole-1-carbonyl]-piperidine-4-carbonitrile], the half-maximal effective concentration (EC50) is 6.8 nM in assay [1] (setting [3]) and over 10000 nM in assay [2] (setting [4]).
In the case of `CC(=O)N(C)C1CCN(C(=O)n2nnn(-c3cccc(F)c3)c2=O)C1` (stereo not shown) [Example 49, N-{1-[4-(3-Fluoro-phenyl)-5-oxo-4,5-dihydro-tetrazole-1-carbonyl]-pyrrolidin-3-yl}-N-methyl-acetamide], the 50% effective concentration (EC50) is 14.3 nM in assay [1] (setting [3]) and over 10000 nM in assay [2] (setting [4]).
In the case of `CC1(C)CCCN(C(=O)n2nnn(-c3cccc(F)c3)c2=O)C1` [Example 63, 1-(3,3-Dimethyl-piperidine-1-carbonyl)-4-(3-fluoro-phenyl)-1,4-dihydro-tetrazol-5-one], the concentration for a half-maximal effect (EC50) in assay [1] (setting [3]) was 1.8 nM; in assay [2] (setting [4]), over 10000 nM.
On the same counts, the results for `CCC(=O)N1CCN(C(=O)n2nnn(-c3cccc(F)c3)c2=O)CC1` [Example 39, 1-(3-Fluoro-phenyl)-4-(4-propionyl-piperazine-1-carbonyl)-1,4-dihydro-tetrazol-5-one] are 497 nM and over 10000 nM.
Consider `O=C(N1CCOCC1)n1nnn(-c2ccccc2C(F)(F)F)c1=O` [Example 119, 1-(morpholine-4-carbonyl)-4-[2-(trifluoromethyl)phenyl]tetrazol-5-one], for which the EC50 in assay [1] (setting [3]) is 386 nM; in assay [2] (setting [4]), over 10000 nM.
The corresponding values for `CN(C(=O)n1nnn(-c2cccc(F)c2)c1=O)c1cccnc1` [Example 33, 4-(3-Fluoro-phenyl)-5-oxo-4,5-dihydro-tetrazole-1-carboxylic acid methyl-pyridin-3-yl-amide] are 25 nM and over 10000 nM.
As to `CCN(CCOC)C(=O)n1nnn(-c2cccc(Cl)c2)c1=O` [Example 80, 4-(3-Chloro-phenyl)-5-oxo-4,5-dihydro-tetrazole-1-carboxylic acid ethyl-(2-methoxy-ethyl)-amide], the figures for the EC50 in assay [1] and in assay [2] were 2.4 nM and over 10000 nM, respectively.
For the compound `Cn1ccc2ccc(-n3nnn(C(=O)N4CCOCC4)c3=O)cc21` [Example 134, 1-(1-methylindol-6-yl)-4-(morpholine-4-carbonyl)tetrazol-5-one], the half-maximal effective concentration (EC50) in assay [1] (setting [3]) is 8 nM; in assay [2] (setting [4]), over 10000 nM.
On the same counts, the results for `Cc1cccc(-n2nnn(C(=O)N3CCOCC3)c2=O)c1` [Example 127, 1-(3-methylphenyl)-4-(morpholine-4-carbonyl)tetrazol-5-one] are 8.4 nM and over 10000 nM.
For `CCN(C(C)=O)C1CCN(C(=O)n2nnn(-c3cccc(OC(F)(F)F)c3)c2=O)C1` (stereo not shown) [Example 72, N-Ethyl-N-{1-[5-oxo-4-(3-trifluoromethoxy-phenyl)-4,5-dihydro-tetrazole-1-carbonyl]-pyrrolidin-3-yl}-acetamide], the EC50 in assay [1] (setting [3]) was 27 nM; in assay [2] (setting [4]) it was over 10000 nM.
On the same counts, the results for `Cn1c(Cn2nnn(-c3cccc(F)c3)c2=O)nnc1S(C)(=O)=O` [Example 17, 1-(3-Fluoro-phenyl)-4-(5-methanesulfonyl-4-methyl-4H-[1,2,4]triazol-3-ylmethyl)-1,4-dihydro-tetrazol-5-one] are 898 nM and over 10000 nM.
On to `O=C(N1CCOCC1)n1nnn(-c2cccc(F)c2)c1=O` [Example 4, 1-(3-Fluoro-phenyl)-4-(morpholine-4-carbonyl)-1,4-dihydro-tetrazol-5-one], for which the results for the EC50 in assay [1] (setting [3]) and in assay [2] (setting [4]) were 3 nM and over 10000 nM, respectively.
On the same counts, the results for `Cn1ccc2cc(-n3nnn(C(=O)N4CCOCC4)c3=O)ccc21` [Example 133, 1-(1-methylindol-5-yl)-4-(morpholine-4-carbonyl)tetrazol-5-one] are 18 nM and over 10000 nM.
The corresponding values for `CCN(CCOC)C(=O)n1nnn(-c2cccc(OC(F)(F)F)c2)c1=O` [Example 81, 5-Oxo-4-(3-trifluoromethoxy-phenyl)-4,5-dihydro-tetrazole-1-carboxylic acid ethyl-(2-methoxy-ethyl)-amide] are 4 nM and over 10000 nM.

(Values after patent US20160083357A1, “NOVEL TETRAZOLONE DERIVATIVES” (Hoffmann-La Roche Inc., priority 2013, published 2016).)
